Reference: BindingDB's records for patent US20240270732 (Chengdu Biobel Biotechnology Co., 2024)

Biological target: T1, Receptor-interacting serine/threonine-protein kinase 1 (Homo sapiens, UniProt Q13546)
T1 sequence (Q13546 whole entry): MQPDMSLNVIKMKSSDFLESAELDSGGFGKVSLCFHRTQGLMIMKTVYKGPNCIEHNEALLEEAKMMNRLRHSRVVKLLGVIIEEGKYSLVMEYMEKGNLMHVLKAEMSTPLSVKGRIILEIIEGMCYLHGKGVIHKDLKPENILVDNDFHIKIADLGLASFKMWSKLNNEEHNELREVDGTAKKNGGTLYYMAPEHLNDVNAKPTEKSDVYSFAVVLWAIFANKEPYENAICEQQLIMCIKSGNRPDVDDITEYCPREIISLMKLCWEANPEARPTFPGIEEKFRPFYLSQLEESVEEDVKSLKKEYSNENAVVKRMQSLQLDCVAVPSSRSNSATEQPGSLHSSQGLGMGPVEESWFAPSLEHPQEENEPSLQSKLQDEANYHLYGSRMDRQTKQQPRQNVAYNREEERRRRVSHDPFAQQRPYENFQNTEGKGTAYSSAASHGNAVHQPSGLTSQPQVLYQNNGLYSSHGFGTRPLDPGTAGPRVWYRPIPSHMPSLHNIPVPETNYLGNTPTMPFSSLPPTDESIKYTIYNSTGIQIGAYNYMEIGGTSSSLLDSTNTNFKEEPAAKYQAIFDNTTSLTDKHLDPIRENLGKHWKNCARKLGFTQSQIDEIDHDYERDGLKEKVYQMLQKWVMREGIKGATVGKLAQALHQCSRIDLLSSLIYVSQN
Assay: Inhibitory Activity Assay
Description: The compound of the present invention and the control compound were dissolved in the assay buffer (50 mM Hepes pH 7.5, 50 mM NaCl, 30 mM MgCl2, 1 mM DTT, 0.02% CHAPS, 0.5 mg/mL BSA), and diluted in a ratio of 1:1.5 using a 22-point titration (high concentration 2 μM), and then added to a 384-well plate. […] After completion of the reaction, 5 μL of ADP-Glo reagent containing 0.02% CHAPS was added to each well and incubated at room temperature for 1 h to terminate the kinase reaction and use up all remaining ATP. Then, 5 μL of ADP-Glo detection solution containing 0.02% CHAPS was added to each well and incubated at room temperature for 30 min to measure the emittance intensity.

Row | Compound | IC50
1 | C#CCN1CCN(CC#Cc2ccc3c(c2)N(C)C(=O)[C@@H](NC(=O)c2ncn(Cc4ccccc4)n2)[C@@H](C)O3)CC1 [US20240270732, Compound I-37] | 4.17 nM
2 | C#Cc1ccc2c(c1)N(C)C(=O)[C@@H](NC(=O)c1nc(Cc3ccccc3)n[nH]1)[C@@H](C)O2 [US20240270732, Compound I-119] | 9.81 nM
3 | CC(O)C#Cc1ccc2c(c1)N(C)C(=O)[C@@H](NC(=O)c1n[nH]c(Cc3ccccc3)n1)[C@@H](C)O2 (some centres not stated) [US20240270732, Compound I-103] | 10.2 nM
4 | C#CCN1CCN(CC#Cc2ccc3c(c2)N(C)C(=O)[C@@H](NC(=O)c2n[nH]c(Cc4cccc(O)c4)n2)[C@@H](C)O3)CC1 [US20240270732, Compound I-69] | 19.4 nM
5 | C[C@H]1Oc2ccc(CCCN3CCN(CCCc4ccc5c(c4)N(C)C(=O)[C@@H](NC(=O)c4ncn(Cc6ccccc6)n4)[C@@H](C)O5)CC3)cc2N(C)C(=O)[C@H]1NC(=O)c1ncn(Cc2ccccc2)n1 [US20240270732, Compound I-122] | 3.18 nM
6 | C#CCN1CCN(CC#Cc2ccc3c(c2)N(C)C(=O)[C@@H](NC(=O)c2cn(Cc4ccccc4)nn2)[C@@H](C)O3)CC1 [US20240270732, Compound I-53] | 15.1 nM
7 | C#CCN1CCN(CC#Cc2ccc3c(c2)NC(=O)[C@@H](NC(=O)c2n[nH]c(Cc4ccccc4)n2)CO3)CC1 [US20240270732, Compound I-20] | 9.44 nM
8 | CN1C(=O)[C@@H](NC(=O)c2nnn(Cc3ccccc3)n2)COc2ccc(C#CCN3CCN(CC#Cc4ccc5c(c4)N(C)C(=O)[C@@H](NC(=O)c4nnn(Cc6ccccc6)n4)CO5)CC3)cc21 [US20240270732, Compound I-58] | 6.16 nM
9 | C[C@H]1Oc2ccc(C#Cc3cccc(S(=O)(=O)O)c3)cc2N(C)C(=O)[C@H]1NC(=O)c1n[nH]c(Cc2ccccc2)n1 [US20240270732, Compound I-113] | 9.35 nM
10 | C[C@H]1Oc2ccc(C#CCN3CCN(CC#Cc4ccc5c(c4)N(C)C(=O)[C@@H](NC(=O)c4cn(Cc6ccccc6)cn4)CO5)CC3)cc2N(C)C(=O)[C@H]1NC(=O)c1ncn(Cc2ccccc2)n1 [US20240270732, Compound I-28] | 4.59 nM
11 | C[C@H]1Oc2ccc(C#CCN3CCN(CC#Cc4ccc5c(c4)N(C)C(=O)[C@@H](NC(=O)c4ncn(Cc6ccccc6)n4)[C@@H](C)O5)CC3)cc2N(C)C(=O)[C@H]1NC(=O)c1n[nH]c(Cc2ccccc2)n1 [US20240270732, Compound I-4] | 6.68 nM
12 | O=C(N[C@H]1COc2ccc(C#CCN3CCN(CC#Cc4ccc5c(c4)NC(=O)[C@@H](NC(=O)c4n[nH]c(Cc6ccccc6)n4)CO5)CC3)cc2NC1=O)c1n[nH]c(Cc2ccccc2)n1 [US20240270732, Compound I-21] | 9.69 nM
13 | C[C@H]1Oc2ccc(C#CCN3CCN(CC#Cc4ccc5c(c4)N(C)C(=O)[C@@H](NC(=O)c4n[nH]c(Cc6ccccc6)n4)CO5)CC3)cc2N(C)C(=O)[C@H]1NC(=O)c1n[nH]c(Cc2ccccc2)n1 [US20240270732, Compound I-3] | 7.22 nM
14 | C[C@H]1Oc2ccc(C#CCN3CCN(CC#Cc4ccc5c(c4)N(C)C(=O)[C@@H](NC(=O)c4n[nH]c(Cc6ccccc6)n4)[C@@H](C)O5)CC3)cc2N(C)C(=O)[C@H]1NC(=O)c1cn(Cc2ccccc2)cn1 [US20240270732, Compound I-8] | 9.5 nM
15 | C[C@H]1Oc2ccc(CCCN3CCN(CCCc4ccc5c(c4)N(C)C(=O)[C@@H](NC(=O)c4n[nH]c(Cc6ccccc6)n4)[C@@H](C)O5)CC3)cc2N(C)C(=O)[C@H]1NC(=O)c1n[nH]c(Cc2ccccc2)n1 [US20240270732, Compound I-124] | 4.84 nM
16 | C[C@H]1Oc2ccc(C#CCN3CCN(CC#Cc4ccc5c(c4)N(C)C(=O)[C@@H](NC(=O)c4ncc(Cc6ccccc6)o4)[C@@H](C)O5)CC3)cc2N(C)C(=O)[C@H]1NC(=O)c1ncc(Cc2ccccc2)o1 [US20240270732, Compound I-44] | 14.9 nM
17 | CN1C(=O)[C@@H](NC(=O)c2n[nH]c(Cc3ccccc3)n2)COc2ccc(C#CCOCCOCCOCCOCCOCC#CC#CCOCCOCCOCCOCCOCC#Cc3ccc4c(c3)N(C)C(=O)[C@@H](NC(=O)c3n[nH]c(Cc5ccccc5)n3)CO4)cc21 [US20240270732, Compound I-88] | 6.58 nM
